This is an account of results in patent US20250215029A1 (Recludix Pharma, Inc., priority 2022, published 2025).

The target in test [1] is T1, Recombinant STAT6 protein (STAT6 (W123-T658)) (Homo sapiens, UniProt P42226).
T1 construct: Recombinant STAT6 protein (STAT6 (W123-T658))
T1 sequence (P42226 123-658): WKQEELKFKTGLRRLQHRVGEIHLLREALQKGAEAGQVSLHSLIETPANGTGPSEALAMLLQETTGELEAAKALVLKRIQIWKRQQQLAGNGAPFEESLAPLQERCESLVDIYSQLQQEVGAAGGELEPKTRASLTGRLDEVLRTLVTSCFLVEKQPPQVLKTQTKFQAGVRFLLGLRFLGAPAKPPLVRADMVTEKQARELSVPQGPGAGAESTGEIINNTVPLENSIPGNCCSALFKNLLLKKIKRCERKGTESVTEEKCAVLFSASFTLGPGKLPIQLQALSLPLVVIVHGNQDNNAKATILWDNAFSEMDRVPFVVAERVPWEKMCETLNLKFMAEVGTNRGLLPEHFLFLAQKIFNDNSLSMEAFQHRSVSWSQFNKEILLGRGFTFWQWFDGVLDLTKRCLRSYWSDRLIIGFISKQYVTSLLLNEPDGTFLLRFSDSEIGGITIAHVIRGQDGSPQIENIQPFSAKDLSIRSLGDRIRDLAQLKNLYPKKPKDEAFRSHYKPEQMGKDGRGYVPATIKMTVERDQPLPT
Kind of test: STAT6 Fluorescence Polarization (FP) Assay. Format: binding. The settings on record: STAT6 (W123-T658) 250 nM, probe 5-FAM-Ap[…]-NH2 2 nM, 45-minute incubation; read-out: STAT6 (FP assay IC50 class). In short, it runs like this:
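Displacement of a fluorescent phosphotyrosine peptide (2 nM) from 250 nM STAT6 (W123-T658) is measured by polarization after a 45-minute room-temperature incubation. Compounds are titrated serially at 1% DMSO, and IC50 values derive from regression of mP on log concentration.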

The target of test [2] is T2, Recombinant STAT3 protein (STAT3 (G127-I722)) (Homo sapiens, UniProt P40763).
T2 construct: Recombinant STAT3 protein (STAT3 (G127-I722))
Kind of test: STAT3 Fluorescence Polarization (FP) Assay. Format: binding. The settings on record: STAT3 (G127-I722) 25 nM, probe 5-FAM-GpYLPQTV-NH2 2 nM, 45-minute incubation; read-out: STAT3 (FP assay IC50 class). In short, it runs like this: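 Displacement of a 2 nM 5-FAM-labelled pY peptide (GpYLPQTV) from 25 nM recombinant STAT3 (G127-I722) was monitored by fluorescence polarization. Incubation lasted 45 min at room temperature in pH 7.4 HEPES buffer containing 1% DMSO.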
(Polarisation of emitted light reports the rotation of a fluorescent probe.)

Structures are written as SMILES.

T2 sequence (P40763 127-722): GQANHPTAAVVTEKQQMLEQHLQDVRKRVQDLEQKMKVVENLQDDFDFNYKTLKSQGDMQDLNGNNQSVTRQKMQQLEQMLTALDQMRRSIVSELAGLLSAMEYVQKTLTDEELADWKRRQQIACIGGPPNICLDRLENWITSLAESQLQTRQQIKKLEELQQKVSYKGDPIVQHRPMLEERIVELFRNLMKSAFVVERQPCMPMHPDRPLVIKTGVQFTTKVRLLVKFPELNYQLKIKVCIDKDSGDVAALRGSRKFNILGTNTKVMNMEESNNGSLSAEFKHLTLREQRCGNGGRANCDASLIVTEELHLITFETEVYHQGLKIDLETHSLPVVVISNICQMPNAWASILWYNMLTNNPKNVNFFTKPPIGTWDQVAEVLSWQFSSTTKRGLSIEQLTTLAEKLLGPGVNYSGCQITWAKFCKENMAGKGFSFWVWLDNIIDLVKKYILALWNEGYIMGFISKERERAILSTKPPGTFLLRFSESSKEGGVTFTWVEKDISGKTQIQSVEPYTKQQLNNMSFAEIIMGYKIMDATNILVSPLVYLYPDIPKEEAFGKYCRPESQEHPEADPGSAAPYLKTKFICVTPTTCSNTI

Turning to `COC1(c2cncnc2)CN(C(=O)[C@@H]2CC[C@@H]3CCC[C@H](NC(=O)c4cc5cc(C(F)(F)P(=O)(O)O)ccc5s4)C(=O)N32)C1` [Compound 723, (difluoro(2-(((3S,6S,9aS)-3-(3-methoxy-3-(pyrimidin-5-yl)azetidine-1-carbonyl)-5-oxooctahydro-1H-pyrrolo[1,2-a]azepin-6-yl)carbamoyl)benzo [b]thiophen-5-yl)methyl) phosphonic acid], the 50% inhibitory concentration (IC50) in test [1] was 3 to 30 µM; in test [2], 0.1 to 1 µM.

`O=C(N[C@H]1CCCC[C@H]2CC[C@@H](C(=O)N3CC(Oc4cccnc4)C3)N2C1=O)c1cc2cc(C(F)(F)P(=O)(O)O)ccc2s1` [Compound 724, (difluoro(2-(((3S,6S,10aS)-5-oxo-3-(3-(pyridin-3-yloxy)azetidine-1-carbonyl)decahydropyrrolo[1,2-a]azocin-6-yl)carbamoyl)benzo [b]thiophen-5-yl)methyl) phosphonic acid]: the figures for the IC50 in test [1] and in test [2] were 0.3 to 3 µM and less than 0.1 µM, respectively.

Turning to `O=C(N[C@H]1CCCC[C@H]2CC[C@@H](C(=O)N[C@H](CO)Cc3cccnc3)N2C1=O)c1cc2cc(C(F)(F)P(=O)(O)O)ccc2s1` [Compound 725, (difluoro(2-(((3S,6S,10aS)-3-(((S)-1-hydroxy-3-(pyridin-3-yl)propan-2-yl)carbamoyl)-5-oxodecahydropyrrolo [1,2-a]azocin-6-yl)carbamoyl)benzo [b]thiophen-5-yl)methyl) phosphonic acid], the values for the IC50 in test [1] and in test [2] were 3 to 30 µM and 0.1 to 1 µM, respectively.

On to `O=C(N[C@H]1CCCC[C@H]2CC[C@@H](C(=O)NCc3ccn[nH]3)N2C1=O)c1cc2cc(C(F)(F)P(=O)(O)O)ccc2s1` [Compound 726, ((2-(((3S,6S,10aS)-3-(((212-pyrazol-3-yl)methyl)carbamoyl)-5-oxodecahydropyrrolo [1,2-a]azocin-6-yl)carbamoyl)benzo [b]thiophen-5-yl)difluoromethyl) phosphonic acid], for which the IC50 in test [1] was 3 to 30 µM; in test [2], 0.1 to 1 µM.

For the compound `O=C(N[C@H]1CCCC[C@H]2CC[C@@H](C(=O)N[C@@H](CO)Cc3cccnc3)N2C1=O)c1cc2cc(C(F)(F)P(=O)(O)O)ccc2s1` [Compound 727, (difluoro(2-(((3S,6S,10aS)-3-(((R)-1-hydroxy-3-(pyridin-3-yl)propan-2-yl)carbamoyl)-5-oxodecahydropyrrolo [1,2-a]azocin-6-yl)carbamoyl)benzo [b]thiophen-5-yl)methyl) phosphonic acid], the IC50 in test [1] lay within 3 to 30 µM; in test [2] it was 1 to 10 µM.

Consider `O=C(N[C@H]1CC[C@H]2CC[C@@H](C(=O)N3CC(c4ccccn4)C3)N2C1=O)c1cc2cc(C(F)(F)P(=O)(O)O)ccc2s1` [Compound 728, (difluoro(2-(((3S,6S,8aS)-5-oxo-3-(3-(pyridin-2-yl)azetidine-1-carbonyl)octahydroindolizin-6-yl)carbamoyl)benzo [b]thiophen-5-yl)methyl) phosphonic acid], for which the IC50 in test [1] is 3 to 30 µM; in test [2], 0.1 to 1 µM.

Consider `O=C(N[C@H]1C/C=C\C[C@@H]2[C@H](O)C[C@@H](C(=O)N3CC(C(=O)N4CCOCC4)C3)N2C1=O)c1cc2cc(C(F)(F)P(=O)(O)O)ccc2s1` [Compound 730, (difluoro(2-(((1R,3S,6S,10aR,Z)-1-hydroxy-3-(3-(morpholine-4-carbonyl)azetidine-1-carbonyl)-5-oxo-1,2,3,5,6,7,10,10a-octahydropyrrolo[1,2-a]azocin-6-yl)carbamoyl)benzo [b]thiophen-5-yl)methyl) phosphonic acid], for which the IC50 in test [1] is 3 to 30 µM; in test [2], 1 to 10 µM.

Take `O=C(N[C@H]1CC[C@H]2CC[C@@H](C(=O)N3CC(C(=O)N4CCOCC4)C3)N2C1=O)c1cc2cc(C(F)(F)P(=O)(O)O)ccc2s1` [Compound 731, (difluoro(2-(((3S,6S,8aS)-3-(3-(morpholine-4-carbonyl)azetidine-1-carbonyl)-5-oxooctahydro-indolizin-6-yl)carbamoyl)benzo [b]thiophen-5-yl)methyl) phosphonic acid]: the half-maximal inhibitory concentration (IC50) in test [1] was in the range of 3 to 30 µM; in test [2] it was 1 to 10 µM.

For orientation: IC50 means the concentration that gives 50% inhibition.
